One assay deals with T1, Kv 1.5-potassium channel (Homo sapiens, UniProt P22460).
T1 construct: expressed in transfected cells
Description: In-vitro Kv 1.5-potassium channel-blocking effect (Rb+ outflow from CHO cells, atomic absorption spectroscopy). It counts as cell-based. The following applies: CHO cells stably expressing Kv 1.5, read-out: IC50 (Kv1.5-potassium channel-blocking effect, concentration of half-maximum inhibition). On the procedure:
1. In-Vitro Investigation of the Kv 1.5-Potassium Channel-Blocking Effect of the Substances
In this test model, a cell line of egg cells of the Chinese hamster (=“Chinese hamster oocytes”, “CHO”) is used which originates from a single cell and stably expresses the Kv 1.5-channel. By incubation overnight in a nutrient medium containing RbCl or a “loading buffer” (all values in mM: RbCl 5, NaCl 140, CaCl2 2, MgSO4 1, HEPES buffer 10, glucose 5) the aforementioned oocytes are loaded with Rb^+ under the influence of Na^+/K^+-ATPase. Thereafter, a portion of the oocytes is incubated as a reference standard in the absence of an inhibitor, while another portion of the oocytes is incubated in the presence of the respective inhibitory test substance of Formula I. Then the oocytes are depolarized by increasing the extracellular potassium-ion concentration, which causes the Kv 1.5-potassium channels of the oocytes to open. In the absence of an inhibitor, the Rb^+ ions flow through the Kv 1.5-potassium channels into the liquid surrounding them. In the presence of an inhibitory test substance of Formula I, on the other hand, the Rb^+ ions remain locked within the oocytes. The extent of the Kv 1.5-potassium channel-blocking effect of the test substances of Formula I is determined by measuring the Rb^+ ion concentration in the liquid surrounding them by means of atomic absorption spectroscopy against a reference standard.
Chinese hamster oocytes (see above) were cultivated in a known, RbCl-containing nutrient medium for CHO-cells and placed in the sample wells of a 96-sample capacity sample plate (“96 well plate”). The oocytes were allowed to grow overnight in order to obtain monolayers of the oocytes. Then the nutrient medium was pipetted off, and each sample well was washed three times with 100 μl portions of a preincubation buffer of low potassium-ion concentration (all values in mM: KCl 5, NaCl 140, CaCl2 2, MgSO4 1, HEPES buffer 10, glucose 5). Then 50 μl of a solution of the respective test substance (stock solution in DMSO, dilution with preincubation buffer, final concentration in the test batch 10 μM) or of the solvent (as negative controls) was added to each sample well and incubated for 10 min. in each case at room temperature. Then 50 μl of a stimulation buffer with elevated potassium-ion concentration (KCl 145 mM, NaCl 0 mM, otherwise as preincubation buffer) was added to each sample well and the samples were then incubated for a further 10 min. at room temperature. In each case, 80 μl of the liquid surrounding the oocytes from each sample well was then transferred separately to the sample wells of an analysis sample plate, and the Rb^+ ion concentration in the liquids was determined by atomic absorption spectroscopy. The test substances were each double-tested. The signal section which represented the Kv 1.5 component of the Rb^+ outflow was defined by using as positive control the known potassium channel blocker 4-AP in a high concentration (100×IC50 for the Kv 1.5 channel). This made it possible to determine which portion of the Rb^+ outflow was dependent on the influence of the 4-AP and therefore is to be assigned to the Kv 1.5 channel. For the substances which in the concentration of 10 μM used led to a reduction in the Rb^+ outflow of at least 50%, additional tests were performed with lower concentrations of the test substances in order to be able to determine the half-maximum effective concentration. In each case the concentration of half-maximum inhibition of the test substances of Formula I (IC50) was given as characteristic variable.

The next assay addresses T2, Kv 1.3-potassium channel (Homo sapiens, UniProt P22001).
T2 construct: expressed in transfected cells; host or cells: CHO cells, stably transfected with the Kv 1.3 plasmid using DMRIE-C
The experiment in a line: In-vitro Kv 1.3-potassium channel-blocking effect (membrane potential-sensitive fluorescent dye in transfected CHO cells). It is filed as cell-based. The following applies: 10 μM test substance; CHO cells transfected with Kv 1.3; relative to reference margatoxin. From the text: 2. In-Vitro Investigation of the Kv 1.3-Potassium Channel-Blocking Effect of the Substances
In this test model, known oocytes of the Chinese hamster (═CHO) are used which are stably transfected with the Kv 1.3-potassium channel. The blockade of the cell-inherent Kv 1.3-potassium channel activity in the transfected cells is accompanied by a positive shift in the membrane potential from approx. −40 mV to −30 mV, whereas in the wild-type CHO cells investigated in parallel no significant shift in the membrane potential is triggered. A change in the membrane potential is thus connected to the reduction in the Kv 1.3-potassium channel activity. By blocking the Kv 1.3-potassium channels e.g. with substances of Formula I and the resulting change in the membrane potential, an accumulation of a membrane potential-sensitive fluorescent dye in intracellular compartments of the oocytes and ultimately increasing fluorescence occurs. The change in the membrane potential of the oocytes is therefore measured indirectly via the increase in fluorescence of the membrane potential-senstive dyes.
The cells were transfected with the Kv 1.3 plasmid in known manner with a commercially obtainable transfection reagent (DMRIE-C from Gibco BRL, Germany). The successful transfection was verified by immunofluorescence and by “patch-clamp” investigations of the potassium ion current. The fluorescence measurements were performed on a Tecan Safire fluorescence reader from Tecan, Germany. In each case, the increase in the fluorescent intensity caused by the blockade of the Kv 1.3-potassium channels in the oocytes with substances of Formula I in a concentration of 10 μM was determined as characteristic variable. The increase in the fluorescent intensity was given in each case in percent (%) compared with an increase in the fluorescent intensity caused by the reference substance margatoxin. Margatoxin is known as a selective Kv 1.3-potassium channel blocker (see e.g. M. Garcia-Calvo et al., J. Biol. Chem. 268 (1993) 18866-18874).

Assay [1] relates to left atrium of rats' hearts. Description: Functional refractory period prolongation on isolated left atria of rats' hearts in vitro. On the set-up: species or system rat (Sprague-Dawley). The following applies: 10 μM. The procedure: 3. Investigation of the Functional Effectiveness of the Substances on the Atrium of Rats' Hearts in Vitro
In this test model it is determined to what extent the Kv 1.5-blocking substances of Formula I result in a prolongation of the functional refractory period in the left atrium of rats. The refractory period is the minimum possible elapsed time between the basic stimulus and additional stimulus in which a renewed contraction can be triggered. The extent of the prolongation of the functional refractory period is a measurement of the antiarrhythmic effectiveness of the substances according to the invention. The functional refractory period is determined by testing on the electrically stimulated preparation at what elapsed time from the preceding contraction a renewed contraction can be triggered by additional electrical stimuli.
The hearts were removed from freshly sacrificed rats (Sprague-Dawley, Charles-River, Germany). The left atria were isolated and fastened to force transducers in a temperature-controlled (30° C.), gasified (O2 95%, CO2 5%) organ bath which was filled with modified Tyrode solution (all values in mM: NaCl 137; KCl 2.7; CaCl2 1.8; MgCl2 0.8; NaHCO3 11.9; NaH2PO4 0.6; glucose 5). In order to trigger regular contractions, the preparations were electrically stimulated (rectangular pulses, pulse magnitude 3.5× threshold stimulus, pulse width 1.5 ms, frequency 1 Hz). Initially, the initial value of the functional refractory period was determined by applying extra pulses in addition to the basic stimulus, the elapsed time from the preceding basic stimulus being shortened until no further additional contraction could be triggered. Then the cumulative addition of increasing concentrations (0.1-10 μM) of the substances of Formula I took place at intervals of 20 min. each, the refractory period being determined again in each case 18 min. after the addition had taken place. Before the measurement, stock solutions of the test substances (3.2 and 0.32 mM in 100% DMSO) were prepared. In order to achieve the desired final concentrations of the substances (0.1-10 μM) in the organ bath (volume 100 ml), corresponding volumes of these stock solutions were then poured into the organ bath.
In each case the prolongation of the functional refractory period (FRP) in the left atrium of the rats' hearts in milliseconds observed after the addition of 10 μM of the respective substance of Formula I to the atrial preparations was given as characteristic variable.

T2 sequence (P22001 whole entry): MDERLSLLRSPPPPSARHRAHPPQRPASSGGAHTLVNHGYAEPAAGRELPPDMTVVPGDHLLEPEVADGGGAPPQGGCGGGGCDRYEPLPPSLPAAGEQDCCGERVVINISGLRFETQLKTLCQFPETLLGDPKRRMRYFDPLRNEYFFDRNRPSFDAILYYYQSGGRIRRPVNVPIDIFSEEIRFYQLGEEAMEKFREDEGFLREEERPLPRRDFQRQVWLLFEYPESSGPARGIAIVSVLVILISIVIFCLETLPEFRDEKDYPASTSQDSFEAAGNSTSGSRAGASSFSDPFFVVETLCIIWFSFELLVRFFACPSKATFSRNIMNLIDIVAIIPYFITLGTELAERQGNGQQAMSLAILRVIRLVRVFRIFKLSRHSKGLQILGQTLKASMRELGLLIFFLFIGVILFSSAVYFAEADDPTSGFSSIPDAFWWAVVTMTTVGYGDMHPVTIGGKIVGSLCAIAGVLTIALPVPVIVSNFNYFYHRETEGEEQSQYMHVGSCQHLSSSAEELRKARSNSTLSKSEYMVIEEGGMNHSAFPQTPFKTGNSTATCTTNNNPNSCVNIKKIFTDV
T1 sequence (P22460 whole entry): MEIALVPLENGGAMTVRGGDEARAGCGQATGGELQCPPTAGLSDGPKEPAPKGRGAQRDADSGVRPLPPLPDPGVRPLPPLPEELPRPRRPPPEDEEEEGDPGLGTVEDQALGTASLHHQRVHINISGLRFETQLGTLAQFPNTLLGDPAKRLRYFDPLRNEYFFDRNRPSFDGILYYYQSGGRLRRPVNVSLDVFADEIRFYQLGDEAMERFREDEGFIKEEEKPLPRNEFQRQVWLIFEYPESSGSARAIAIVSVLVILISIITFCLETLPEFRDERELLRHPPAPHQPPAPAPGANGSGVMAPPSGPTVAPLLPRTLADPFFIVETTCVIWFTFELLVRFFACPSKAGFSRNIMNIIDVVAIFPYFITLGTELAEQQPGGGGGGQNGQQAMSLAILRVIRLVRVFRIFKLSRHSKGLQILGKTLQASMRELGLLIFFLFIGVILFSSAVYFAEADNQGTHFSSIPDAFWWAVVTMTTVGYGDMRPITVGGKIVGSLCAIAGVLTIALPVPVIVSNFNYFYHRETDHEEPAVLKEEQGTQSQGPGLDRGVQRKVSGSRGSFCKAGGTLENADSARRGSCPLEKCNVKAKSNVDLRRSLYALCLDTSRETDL

As for `Cc1ccc(S(=O)(=O)N(CC2CC2)C2c3cc(CC(=O)NCc4ccccc4)ccc3OC(C)(C)C2O)cc1` (stereo not shown) [Example 18], on Kv 1.5-potassium channel, the IC50 is 2.7 µM. Also, the “Increase in the fluorescent intensity (% margatoxin)” value (“Increase … (% margatoxin)” for short) on Kv 1.3-potassium channel is 141 % margatoxin. In the same order, the values of `Cc1ccc(S(=O)(=O)N(CCC(C)C)C2c3cc(CC(=O)NCc4ccccc4)ccc3OC(C)(C)C2O)cc1` (stereo not shown) [Example 19] are 2.5 µM and 171 % margatoxin.

Regarding `COc1cccc(S(=O)(=O)N(CCC(C)C)C2c3cc(CC(=O)NCc4ccc(Cl)cc4)ccc3OC(C)(C)C2O)c1` (stereo not shown) [Example 27], the IC50 on Kv 1.5-potassium channel amounted to 5.6 µM. Regarding `CCCNC(=O)Cc1ccc2c(c1)C(N(CC(C)C)S(=O)(=O)c1ccc(F)c(Cl)c1)C(O)C(C)(C)O2` (stereo not shown) [Example 24], the IC50 at Kv 1.5-potassium channel was determined as 5 µM. On the same count and under the same terms, then `CC(C)CCN(C1c2cc(CC(=O)NCc3ccccc3)ccc2OC(C)(C)C1O)S(=O)(=O)c1ccc2ccccc2c1` (stereo not shown) [Example 25], with 5.2 µM. As for `Cc1cccc(S(=O)(=O)NC2c3cc(CC(=O)NCc4ccc(Cl)cc4)ccc3OC(C)(C)C2O)c1` (stereo not shown) [Example 5, N-(4-chlorobenzyl)-2-(3-hydroxy-2,2-dimethyl-4-{[(3-methylphenyl)sulfonyl]amino}-3,4-dihydro-2H-chromen-6-yl)acetamide], the IC50 at Kv 1.5-potassium channel came out at 5 µM. The “Increase … (% margatoxin)” value at Kv 1.3-potassium channel is recorded as 82 % margatoxin.

As to `CCCNC(=O)Cc1ccc2c(c1)C(N(CCC(C)C)S(=O)(=O)c1ccc(-c3ccccc3)cc1)C(O)C(C)(C)O2` (stereo not shown) [Example 26], the IC50 on Kv 1.5-potassium channel amounted to 5.2 µM. `CCCCNC(=O)Cc1ccc2c(c1)C(N(CC(CC)CC)S(=O)(=O)c1cc(OC)ccc1OC)C(O)C(C)(C)O2` (stereo not shown) [Example 6]: the IC50 at Kv 1.5-potassium channel turned out to be 2.9 µM. Also, the “Increase … (% margatoxin)” value at Kv 1.3-potassium channel is given as 97 % margatoxin. Taken in the same sequence, the figures for `CC(C)CCN(C1c2cc(CC(=O)NCc3ccccc3)ccc2OC(C)(C)C1O)S(=O)(=O)c1ccc(C(F)(F)F)cc1` (stereo not shown) [Example 23] were 4.3 µM and 41 % margatoxin.

Turning to `CCCCNC(=O)Cc1ccc2c(c1)C(NS(=O)(=O)c1ccc(I)cc1)C(O)C(C)(C)O2` (stereo not shown) [Example 17], the IC50 at Kv 1.5-potassium channel is 2.65 µM. Further, at Kv 1.3-potassium channel, the “Increase … (% margatoxin)” value is 72 % margatoxin.

With `CCCCCN(C1c2cc(CC(=O)NC(C)C(C)C)ccc2OC(C)(C)C1O)S(=O)(=O)c1cccc(OC)c1` (stereo not shown) [Example 22], the IC50 on Kv 1.5-potassium channel came out at 3.4 µM. In addition, on Kv 1.3-potassium channel, the “Increase … (% margatoxin)” value was determined as 71 % margatoxin. Turning to `Cc1ccc(S(=O)(=O)NC2c3cc(CC(=O)NC4CCCc5ccccc54)ccc3OC(C)(C)C2O)cc1` (mixture of isomers) [Example 15], the IC50 on Kv 1.5-potassium channel came to 4 µM. The molecule further had an FRP prolongation in assay [1] of 30 ms.

Take `CCC(CC)CN(C1c2cc(CC(=O)NCc3ccco3)ccc2OC(C)(C)C1O)S(=O)(=O)c1cc(OC)ccc1OC` (stereo not shown) [Example 21]: the IC50 at Kv 1.5-potassium channel was 3.3 µM. For the same molecule, the “Increase … (% margatoxin)” value on Kv 1.3-potassium channel stood at 86 % margatoxin.

(Values after patent publication US7368582B2, “Amidomethyl-substituted 2-(4-sulfonylamino)-3-hydroxy-3,4-dihydro-2H-chromen-6-yl compounds, a process and intermediates for their production, and pharmaceutical compositions containing them” (Solvay Pharmaceuticals GmbH, priority 2003, dated 2008).)
